Assay results from patent US20100144712A1 (priority 2007, published 2010).
≈ marks a conversion by molar mass, not a printed value. Where two headings read alike, the source gives them in different places. Values belong to the compound of their own block, whether it stands above or below them.

Legend:
Format in all cases: cell-based
[1] = system: Aspergillus terreus ATCC 28301; assay: In vitro antifungal activity (MIC80), Aspergillus terreus ATCC 28301; settings: Table 3, ATCC 28301
Experimental: (§1) In vitro antifungal activities of the inventive antifungal compounds were evaluated using test strains including Candida albican (ATCC 90873, 204276, 62342, 64124, 64550, 96901, MYA-573, MYA-574, MYA-575, MYA-576, MYA-1003) and Aspergillus fumigatus (ATCC 16424). Test samples and positive control samples were prepared by dissolving the inventive compounds and comparative compounds, i.e., amphotericin B, fluconazole and itraconazole, in DMSO, respectively, and each successively diluted with medium to obtain test and positive control solutions having test compound concentrations of 0.125 μg/ml to a maximum concentration not generating turbidity. Minimal inhibitory concentration (MIC80) of each compound was determined as the lowest concentration of the test compounds required to reduce growth by 80% relative to a control strain not treated.
(§2) 3) Preparation of test samples: the inventive compounds and comparative compounds were each diluted with DMSO to obtain 1 to 2 ml of a test sample in a concentration of 100-folds of the determining maximum concentration (256 μg/ml).
(§3) The test samples were each successively diluted with RPMI 1640 to obtain test solutions having concentrations of […] in a 12×75 mm sterilized disposable culture tube. The final concentration of DMSO was adjusted to […] (v/v).
(§4) Candida albican strains were each subcultured in Sabourad Dextrose Agar, YM Agar or Potato Dextrose Agar medium at 35° C. for 2˜3 days. In the case of yeasts, a single colony was taken from prominent colonies and suspended in 0.85% sterile physiological saline solution and the turbidity of the suspension was adjusted to 80˜82% at 530 nm, and then diluted 50-fold with RPMI 1640 medium to 1.0×10^3˜5.0×10^3 CFU/ml. The turbidity of fungi was adjusted to 80˜82% and the suspension was diluted 50-fold to […]. Aspergillus fumigatus strains were subcultured in Malt Extract Agar for 7˜10 days, and a single colony was taken from prominent colonies and suspended in 0.85% sterile physiological saline solution and the suspension was adjusted to 0.108 at 530 nm, and then diluted 1000-fold with RPMI 1640 medium to 0.4×10^2˜5×10^4 CFU/ml. The turbidity of fungi was adjusted to 80˜82% and the suspension was diluted 50-fold to 0.4102˜0.5104 CFU/ml.
(§5) The strain solutions thus obtained were each seeded into a sterilized 96-well microplate, 0.1 ml of each test solution were added thereto, and […] of alamarblue was treated to each well (Biosource, #DAL1100). This procedure was repeated 2 times.
(§6) Minimal inhibitory concentration (MIC80) of each compound was determined as the lowest concentration of the test compounds required to reduce growth by 80% relative to a control strain not treated.
(§7) MIC80 of each of the compounds of which antifungal activities can be confirmed by Table 2 was determined using other test strains, i.e., Aspergillus fumigatus ATCC 16424 and MYA-1163, Aspergillus terreus ATCC 28301, Aspergillus flavus ATCC MYA-1004, and Aspergillus niger ATCC 9142.

[2] = system: Candida albican ATCC MYA-1003; assay: In vitro antifungal activity (MIC80), Candida albican ATCC MYA-1003; settings: Table 2, MYA 1003
Procedure, shortened: (§8)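 Broth microdilution in RPMI 1640 with 2% (v/v) final DMSO, test solutions 0.25 to 256 […]. Inoculum of 1.0×10^3–5.0×10^3 CFU/ml came from colonies grown 2–3 days at 35 °C, and alamarBlue was added. MIC80 is the lowest concentration reducing growth by 80% versus untreated control.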

[3] = system: Candida albican ATCC MYA-575; assay: In vitro antifungal activity (MIC80), Candida albican ATCC MYA-575; settings: Table 2, MYA 575
Procedure, shortened: as §8

[4] = system: Candida albican ATCC MYA-573; assay: In vitro antifungal activity (MIC80), Candida albican ATCC MYA-573; settings: Table 2, MYA 573
Procedure, shortened: as §8

[5] = system: Aspergillus fumigatus (ATCC 16424); assay: In vitro antifungal activity (MIC80), Aspergillus fumigatus ATCC 16424; settings: for MIC80: Aspergillus fumigatus, read-out: Minimal inhibitory concentration (MIC80)
Procedure, shortened: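 Broth dilution in RPMI 1640 with 2% (v/v) final DMSO; A. fumigatus inoculum from Malt Extract Agar subculture diluted 1000-fold to 0.4×10^2˜5×10^4 CFU/ml, alamarblue added, repeated 2 times. MIC80 is lowest concentration reducing growth 80% versus untreated control.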

[6] = system: Candida albican ATCC 90873; assay: In vitro antifungal activity (MIC80), Candida albican ATCC 90873; settings: Table 2, ATCC 90873
Procedure, shortened: as §8

[7] = system: Candida albican ATCC MYA-574; assay: In vitro antifungal activity (MIC80), Candida albican ATCC MYA-574; settings: Table 2, MYA 574
Procedure, shortened: as §8

[8] = system: Aspergillus flavus ATCC MYA-1004; assay: In vitro antifungal activity (MIC80), Aspergillus flavus ATCC MYA-1004; settings: Table 3, MYA-1004
Experimental: as §1, §2, §3, §4, §5, §6, §7

[9] = system: Candida albican ATCC 96901; assay: In vitro antifungal activity (MIC80), Candida albican ATCC 96901; settings: Table 2, ATCC 96901
Procedure, shortened: as §8

[10] = system: Candida albican ATCC 64550; assay: In vitro antifungal activity (MIC80), Candida albican ATCC 64550; settings: Table 2, 64550
Procedure, shortened: as §8

[11] = system: Aspergillus niger ATCC 9142; assay: In vitro antifungal activity (MIC80), Aspergillus niger ATCC 9142; settings: Table 3, ATCC 9142
Experimental: as §1, §2, §3, §4, §5, §6, §7

[12] = system: Aspergillus fumigatus MYA-1163; assay: In vitro antifungal activity (MIC80), Aspergillus fumigatus MYA-1163; settings: Table 3, MYA-1163
Experimental: as §1, §2, §3, §4, §5, §6, §7

[13] = system: Candida albican ATCC 62342; assay: In vitro antifungal activity (MIC80), Candida albican ATCC 62342; settings: Table 2, 62342
Procedure, shortened: as §8

[14] = system: Candida albican ATCC MYA-576; assay: In vitro antifungal activity (MIC80), Candida albican ATCC MYA-576; settings: Table 2, MYA 576
Procedure, shortened: as §8

[15] = system: Candida albican ATCC 64124; assay: In vitro antifungal activity (MIC80), Candida albican ATCC 64124; settings: Table 2, 64124
Procedure, shortened: as §8

[16] = Candida, read-out: Minimal inhibitory concentration (MIC80)

MIC80 ([1]; Aspergillus terreus, ATCC28301, read-out: Minimal inhibitory concentration (MIC80)): 4 µg/mL (≈ 6.68 µM)
MIC80 [2, 16]: 8 µg/mL (≈ 13.4 µM)
MIC80 [3, 16]: 1 µg/mL (≈ 1.67 µM)
MIC80 [4, 16]: 2 µg/mL (≈ 3.34 µM)
MIC80 ([5]; ATCC16424, Table 2, ATCC 16424): 2 µg/mL (≈ 3.34 µM)
MIC80 ([5]; ATCC16424, Table 3, ATCC 16424): 2 µg/mL (≈ 3.34 µM)
MIC80 ([6]; Candida, ATCC90873, read-out: Minimal inhibitory concentration (MIC80)): 1 µg/mL (≈ 1.67 µM)
MIC80 [7, 16]: 4 µg/mL (≈ 6.68 µM)
MIC80 ([8]; Aspergillus flavus, read-out: Minimal inhibitory concentration (MIC80)): 4 µg/mL (≈ 6.68 µM)
MIC80 ([9]; Candida, ATCC96901, read-out: Minimal inhibitory concentration (MIC80)): 2 µg/mL (≈ 3.34 µM)
MIC80 ([10]; Candida, ATCC64550, read-out: Minimal inhibitory concentration (MIC80)): 2 µg/mL (≈ 3.34 µM)
MIC80 ([11]; Aspergillus niger, ATCC9142, read-out: Minimal inhibitory concentration (MIC80)): 4 µg/mL (≈ 6.68 µM)
MIC80 ([12]; Aspergillus fumigatus, MYA1163, read-out: Minimal inhibitory concentration (MIC80)): 4 µg/mL (≈ 6.68 µM)
MIC80 ([13]; Candida, ATCC62342, read-out: Minimal inhibitory concentration (MIC80)): 8 µg/mL (≈ 13.4 µM)
MIC80 [14, 16]: 0.25 µg/mL (≈ 0.418 µM)
MIC80 ([15]; Candida, ATCC64124, read-out: Minimal inhibitory concentration (MIC80)): 4 µg/mL (≈ 6.68 µM)
SMILES: C[C@@H](N1CCN(c2nc3ccc(NCCN4CCOCC4)cc3s2)CC1)[C@](O)(Cn1cncn1)c1ccc(F)cc1F [Example 12, (2R,3R)-3-(4-(6-(2-morpholinoethylamino)benzothiazol-2-yl)piperazin-1-yl)-2-(2,4-difluorophenyl)-1-(1H-1,2,4-triazol-1-yl)butan-2-ol]

Minimal inhibitory concentration (MIC80) [1]: 4 µg/mL (≈ 4.33 µM)
Minimal inhibitory concentration (MIC80) [2]: 0.5 µg/mL (≈ 0.541 µM)
Minimal inhibitory concentration (MIC80) [3]: 0.5 µg/mL (≈ 0.541 µM)
Minimal inhibitory concentration (MIC80) [4]: 0.5 µg/mL (≈ 0.541 µM)
Minimal inhibitory concentration (MIC80) ([5]; Table 2, ATCC 16424): 1 to 2 µg/mL
Minimal inhibitory concentration (MIC80) ([5]; Table 3, ATCC 16424): 0.5 µg/mL (≈ 0.541 µM)
Minimal inhibitory concentration (MIC80) [6]: 1 to 2 µg/mL
Minimal inhibitory concentration (MIC80) [7]: 0.25 µg/mL (≈ 0.271 µM)
Minimal inhibitory concentration (MIC80) [8]: 4 µg/mL (≈ 4.33 µM)
Minimal inhibitory concentration (MIC80) [9]: 0.25 µg/mL (≈ 0.271 µM)
Minimal inhibitory concentration (MIC80) [10]: 0.5 µg/mL (≈ 0.541 µM)
Minimal inhibitory concentration (MIC80) [11]: 0.5 µg/mL (≈ 0.541 µM)
Minimal inhibitory concentration (MIC80) [12]: 2 µg/mL (≈ 2.16 µM)
Minimal inhibitory concentration (MIC80) [13]: 0.5 µg/mL (≈ 0.541 µM)
Minimal inhibitory concentration (MIC80) [14]: 0.5 µg/mL (≈ 0.541 µM)
Minimal inhibitory concentration (MIC80) [15]: 0.5 µg/mL (≈ 0.541 µM)
SMILES: C[C@@H]1[C@H](O)[C@@H](C)/C=C/C=C/C=C/C=C/C=C/C=C/C=C/[C@H](O[C@@H]2O[C@H](C)[C@@H](O)[C@H](N)[C@@H]2O)C[C@@H]2O[C@](O)(C[C@@H](O)C[C@@H](O)[C@H](O)CC[C@@H](O)C[C@@H](O)CC(=O)O[C@H]1C)C[C@H](O)[C@H]2C(=O)O [A, amphotericin B, reference compound]
